Test results published in patent US7214673B2, “Piperazine substituted aryl benzodiazepines and their use as dopamine receptor antagonists for the treatment of psychotic disorders” (Eli Lilly and Company, priority 2002, dated 2007).
pKi: −log10 of the molar value. Where a name gives a salt, the structure may show the parent alone.

Legend:
Dopamine D2 receptor = biological target: T1, Dopamine D2 receptor (Homo sapiens, UniProt P14416); experiment: Dopamine D2 receptor binding assay ([125I]iodospiperone); details: [125I]iodospiperone 0.1 nM, D2 receptor membranes, 2 hours at room temperature; read-out: Relative D2 Receptor Binding Affinity Ki
T1 construct: purchased Receptor Biology (now owned by NEN) RBHD2CM
Procedure: Serotonin 5-HT6 and Dopamine D2 Binding Assay Protocol
The assay buffers used are 50 mM Tris-HCl pH 7.4, 120 mM NaCl, 5 mM KCl, 5 mM MgCl2, 1 mM EDTA for the Dopamine D2s receptor binding assay. […] The membranes used are from Receptor Biology (now owned by NEN), Cat #RBHD2CM for the D2 receptor.
Compounds are obtained as 10 mM stocks in 100% DMSO. They are diluted to 1 mM in 100% DMSO by adding 180 μL DMSO to 20 μL of stock in 96 well plates using a multidrop. […] This is done using a TECAN robot.
The radioligand is diluted in assay buffer to provide 0.1 nM for the D2 assay. Each vial of membranes is diluted up to 92 mL in assay buffer. The final assay volume is 250 μL consisting of 210 μl of diluted membranes, 20 μL of compound or 10% DMSO for total binding, and 20 μL of diluted radioligand. The compounds are transferred from drug dilution plates into coming 96 well assay plates using a 96 well Multimek pipettor. Radioligand and membranes are added to assay plates using multidrop pipettors. Non-specific binding is determined in wells containing a final concentration of 5 μM haloperidol. The final drug concentration range in half logs is from 10 μM down to 0.1 nM.
After addition of drug, membrane, and ligand, the plates are incubated for 2 hours at room temperature. During this time 96 well Millipore filter plates (MAFBNOB50) are soaked for a least 30 minutes with 200 μL per well of 0.5% polyethyleneimine.
The 0.5% PEI is removed from filterplate wells using a TiterTek MAP aspirator and 200 μL of the incubation mixture is transferred from the incubation plate to the filterplate after mixing. This transfer is done using the 96 tip Mutimek pipettor. After transfer to the filterplate filterplates are extracted and ished twice with 220 μL per well of cold buffer on the MAP aspirator. The peel away bottoms are removed from the filterplates and 60 μL per well of microscint 20 scintillation fluid is added per well using a multidrop. Plates are placed into suitable holders and are left at room temperature for 3 hours and are counted for ^3H in either a Wallac Microbeta counter or on a Packard Topcount.

T1 sequence (P14416 1-414 isoform P14416-2): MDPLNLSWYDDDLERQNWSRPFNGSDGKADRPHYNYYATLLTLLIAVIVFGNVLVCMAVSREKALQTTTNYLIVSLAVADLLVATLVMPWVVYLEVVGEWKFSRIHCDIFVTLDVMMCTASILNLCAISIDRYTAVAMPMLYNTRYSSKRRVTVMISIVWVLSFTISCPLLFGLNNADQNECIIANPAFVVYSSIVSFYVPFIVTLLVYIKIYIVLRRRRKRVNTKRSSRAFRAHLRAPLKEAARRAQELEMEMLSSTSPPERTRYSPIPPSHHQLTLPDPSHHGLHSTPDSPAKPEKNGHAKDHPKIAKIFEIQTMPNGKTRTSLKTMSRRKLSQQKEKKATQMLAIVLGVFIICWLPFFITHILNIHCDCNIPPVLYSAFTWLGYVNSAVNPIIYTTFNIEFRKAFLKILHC

Row | Structure (SMILES) | pKi (Dopamine D2 receptor) | melting point
1 | COc1cccc(CC[C@H]2CN(C3=Nc4ccccc4Nc4sc(C)cc43)CCN2C)c1 [Example 186, 10-((S)-3-(2-(3-Methoxy-phenyl)-ethyl)-4-methyl-piperazin-1-yl)-2-methyl-4H-3-thia-4.9-diaza-benzo[f]azulene dihydrochloride] | > 8.00 | 
2 | Cc1cc2c(s1)Nc1ccccc1N=C2N1CCN(C)[C@@H](CCc2ccccc2F)C1 [Example 184, 10-((S)-3-(2-(2-Fluoro-phenyl)-ethyl)-4-methyl-piperazin-1-yl)-2-methyl-4H-3-thia-4,9-diaza-benzo[f]azulene dihydrochloride] | 7.00 to 8.00 | 
3 | COc1cccc(CC[C@H]2CN(C3=Nc4ccccc4Nc4sc(C)cc43)CCN2)c1 [Example 180, 10-((S)-3-(2-(3-Methoxy-phenyl)-ethyl)-piperazin-1-yl)-2-methyl-4H-3-thia-4,9-diaza-benzo[f]azulene dihydrochloride] | > 8.00 | 
4 | Cc1cc2c(s1)Nc1ccccc1N=C2N1CCN[C@@H](Cc2cc(F)cc(F)c2)C1 [Example 88] | > 8.00 | 
5 | Cc1cc2c(s1)Nc1ccccc1N=C2N1CCN(C)[C@@H](Cc2cccc(Cl)c2)C1 [Example 119] | 7.00 to 8.00 | 
6 | Cc1cc2c(s1)Nc1ccccc1N=C2N1CCN[C@@H](CCc2cccc(F)c2)C1 [Example 177, 10-((S)-3-(2-(3-Fluoro-phenyl)-ethyl)-piperazin-1-yl))-2-methyl-4H-3-thia-4,9-diaza-benzo[f]azulene dihydrochloride] | 7.00 to 8.00 | 
7 | Cc1cc2c(s1)Nc1ccccc1N=C2N1CCN(C)[C@@H](CCc2ccc(F)cc2)C1 [Example 182, 10-((S)-3-(2-(4-Fluoro-phenyl)-ethyl]-4-methyl-piperazin-1-yl)-2-methyl-4H-3-thia-4,9-diaza-benzo[f]azulene dihydrochloride] | 7.00 to 8.00 | 
8 | Cc1cc2c(s1)Nc1ccccc1N=C2N1CCN(C)[C@@H](CCCCc2ccccc2)C1 [Example 195, (S)-2-Methyl-10-(3-(4-phenyl-butyl)-4-methyl-piperazin-1-yl)-4H-3-thia-4,9-diaza-benzo[f]azulene, dihydrochloric acid] | 7.00 to 8.00 | 
9 | COc1ccc(CC[C@H]2CN(C3=Nc4ccccc4Nc4sc(C)cc43)CCN2)cc1 [Example 179, 10-((S)-3-(2-(4-methoxy-phenyl)-ethyl)-piperazin-1-yl)-2-methyl-4H-3-thia-4,9-diaza-benzo[f]azulene dihydrochloride] | > 8.00 | 
10 | Cc1nc2c(s1)Nc1ccccc1N=C2N1CCN(C)[C@@H](CCc2ccccc2)C1 [Example 461, (S)-2-Methyl-10-(4-methyl-3-phenethyl-piperazin-1-yl)-4H-3-thia-1,4,9-triaza-benzo[f]azulene dihydrochloride hemihydrate] | 7.00 to 8.00 | 
11 | CC(C)n1nc2c(n1)C(N1CCN(C)[C@@H](CCc3ccccc3)C1)=Nc1ccccc1N2 [Example 595, (S)-2-Isopropyl-10-(4-methyl-3-phenethyl-piperazin-1-yl)-2,4-dihydro-1,2,3,4,9-pentaaza-benzo[f]azulene dihydrochloride hemihydrate] | 7.00 to 8.00 | 
12 | COc1ccc(CC[C@H]2CN(C3=Nc4ccccc4Nc4sc(C)cc43)CCN2C)cc1 [Example 185, 10-((S)-3-(2-(4-Methoxy-phenyl)-ethyl)-4-methyl-piperazin-1-yl)-2-methyl-4H-3-thia-4,9-diaza-benzo[f]azulene dihydrochloride] | 7.00 to 8.00 | 
13 | CC(C)c1ccc2c(c1)C(N1CCN(C)[C@@H](CCc3cccc(F)c3)C1)=Nc1ccccc1N2 (as salt: hydrochloride) |  | 227 °C
14 | Cc1cc2c(s1)Nc1ccccc1N=C2N1CCN(C)[C@@H](CCc2ccccc2Cl)C1 [Example 392, 10-((S)-3-[2-(2-Chloro-phenyl)-ethyl]-4-methyl-piperazin-1-yl)-2-methyl-4H-3-thia-4,9-diaza-benzo[f]azulene] |  | 72 °C (dec.)
15 | CC(C)c1nc2c(s1)Nc1ccccc1N=C2N1CCN(C)[C@@H](CCc2cccc(F)c2)C1 (as salt: hydrochloride) |  | 180 °C
16 | Cc1cc2c(s1)Nc1ccccc1N=C2N1CCN[C@@H](CCc2ccccc2F)C1 (as salt: hydrochloride) [Example 178, 10-((S)-3-(2-(2-Fluoro-phenyl)-ethyl)-piperazin-1-yl)-2-methyl-4H-3-thia-4,9-diaza-benzo[f]azulene dihydrochloride] |  | 209 °C (dec.)

Row | Structure (SMILES) | pKi (Dopamine D2 receptor) | melting point
17 | Cc1ccc2c(c1)Nc1ccccc1N=C2N1CCN(C)CC1 [Example 574, 3-Methyl-11-(4-methyl-piperazin-1-yl)-3-methyl-5H-dibenzo[b,e][1,4]diazepine] |  | 84 °C (dec.)
18 | CC(C)c1nc2c(s1)Nc1ccccc1N=C2N1CCN(C)[C@@H](Cc2ccccc2)C1 (as salt: hydrochloride) [Example 477, (S)-10-(3-Benzyl-4-methyl-piperazin-1-yl)-2-isopropyl-4H-3-thia-1,4,9-triaza-benzo[f]azulene dihydrochloride] |  | 235 °C
19 | Cc1cc2c(s1)Nc1ccccc1N=C2N1CCN(C)[C@@H](CCc2ccccc2C(F)(F)F)C1 [Example 397, 10-((S)-3-[2-(2-Trifluoromethyl-phenyl)-ethyl]-4-methyl-piperazin-1-yl)-2-methyl-4H-3-thia-4,9-diaza-benzo[f]azulene] |  | 68 °C (dec.)
20 | Cc1cc2c(s1)Nc1ccccc1N=C2N1CCN(C)[C@@H](CCc2ccccc2F)C1 (as salt: hydrochloride) [Example 184, 10-((S)-3-(2-(2-Fluoro-phenyl)-ethyl)-4-methyl-piperazin-1-yl)-2-methyl-4H-3-thia-4,9-diaza-benzo[f]azulene dihydrochloride] |  | 203 °C (dec.)
21 | CN1CCN(C2=Nc3ccccc3Nc3sc(C(C)(C)C)cc32)C[C@@H]1CCc1ccccc1 (as salt: hydrochloride) |  | 230 °C
22 | Cc1cc2c(s1)Nc1ccccc1N=C2N1CCN[C@@H](CCc2cccnc2)C1 (as salt: hydrochloride) (hydrate or solvate) |  | 226 to 229 °C (dec.)
23 | CC(C)c1nc2c(s1)Nc1ccccc1N=C2N1CCN(C)[C@@H](CCc2ccc(F)cc2)C1 (as salt: hydrochloride) [Example 481, (S)-10-{3-[2-(4-Fluoro-phenyl)-ethyl]-4-methyl-piperazin-1-yl}-2-isopropyl-4H-3-thia-1,4,9-triaza-benzo[f]azulene dihydrochloride] |  | 228 °C
24 | Cc1cc2c(s1)Nc1ccccc1N=C2N1CCN[C@@H](CCc2ccc(F)cc2)C1 (as salt: hydrochloride) [Example 176, 10-((S)-3-(2-(4-Fluorophenyl)-ethyl)-piperazin-1-yl)-2-methyl-4H-3-thia-4,9-diaza-benzo[f]azulene dihydrochloride] |  | 236 °C (dec.)
25 | Cc1nc2c(s1)Nc1ccccc1N=C2N1CCN(C)[C@@H](Cc2ccccc2)C1 (as salt: hydrochloride) |  | 240 °C
26 | Cc1ccc2c(c1)Nc1ccccc1N=C2N1CCN(C)[C@@H](CCc2cccc(F)c2)C1 [Example 578, 11-{(S)-3-[2-(3-Fluoro-phenyl)-ethyl]-4-methyl-piperazin-1-yl}-3-methyl-5H-dibenzo[b,e][1,4]diazepine] |  | 63 °C (dec.)
27 | CN1CCN(C2=Nc3ccccc3Nc3ccc(C(F)(F)F)cc32)CC1 [Example 606, 11-(4-Methyl-piperazin-1-yl)-2-trifluoromethyl-5H-dibenzo[b,e][1,4]diazepine] |  | 68 to 72 °C
28 | Cc1nc2c(s1)Nc1ccccc1N=C2N1CCN[C@@H](Cc2ccccc2)C1 [Example 462] |  | 250 to 252 °C
29 | COc1cccc(CC[C@H]2CN(C3=Nc4ccccc4Nc4sc(C)cc43)CCN2C)c1 (as salt: hydrochloride) [Example 186, 10-((S)-3-(2-(3-Methoxy-phenyl)-ethyl)-4-methyl-piperazin-1-yl)-2-methyl-4H-3-thia-4.9-diaza-benzo[f]azulene dihydrochloride] |  | 200 °C (dec.)
30 | CC(C)(C)c1cc2c(s1)Nc1ccccc1N=C2N1CCN[C@@H](CCc2ccccc2)C1 [Example 445, (S)-2-tert-Butyl-10-(3-phenethyl-piperazin-1-yl)-4H-3-thia-4,9-diaza-benzo[f]azulene] |  | 93 to 96 °C
31 | COc1ccccc1CC[C@H]1CN(C2=Nc3ccccc3Nc3sc(C)cc32)CCN1C (as salt: hydrochloride) [Example 187, 10-((S)-3-(2-(2-Methoxy-phenyl)-ethyl)-4-methyl-piperazin-1-yl)-2-methyl-4H-3-thia-4,9-diaza-benzo[f]azulene dihydrochloride] |  | 213 °C (dec.)
